Data reported in patent US20100267561A1, “HERBICIDAL PYRIDAZINONE DERIVATIVES” (priority 2007, published 2010).
Where two headings read alike, the source gives them in different places.

Experiments:
Format in all cases: in vivo
[1] = tested on: barnyardgrass (Echinochloa crus-galli); experiment: Test A pre-/postemergence plant response; details: for pest or weed control at 31 g/ha / pest or weed control at 125 g/ha: Echinochloa crus-galli, 240 h, read-out: Plant response rating, Barnyardgrass
Method in brief: (§1)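 Greenhouse pot test: loam–sand soil; pre- and postemergence sprays applied same day; post plants 2–10 cm, 1–2 leaves. Readout ~10 d, visual % injury vs untreated (0 = none, 100 = complete control).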

corn (Zea mays) = experiment: Test A pre-/postemergence plant response; details: for Corn plant response rating (crop injury, 0 = no effect, 100 = complete kill) at 31 g/ha / Corn plant response rating (crop injury, 0 = no effect, 100 = complete kill) at 125 g/ha: Zea mays, 240 h
Method in brief: as §1

[2] = tested on: pigweed (Amaranthus retroflexus); experiment: Test A pre-/postemergence plant response; details: for pest or weed control at 31 g/ha / pest or weed control at 125 g/ha: Amaranthus retroflexus, 240 h, read-out: Plant response rating, Pigweed
Method in brief: as §1

[3] = tested on: wheat (Triticum aestivum); experiment: Test A pre-/postemergence plant response; details: for plant injury at 31 g/ha / plant injury at 125 g/ha: Triticum aestivum, 240 h, read-out: Plant response rating, Wheat
Method in brief: as §1

[4] = tested on: catchweed bedstraw (Galium aparine); experiment: Test B pre-/postemergence plant response; details: Preemergence
Method in brief: (§2)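 Visual scoring from 0 (no effect) to 100 (complete control) against untreated controls was done 13 to 15 days after greenhouse treatment. Chemicals were formulated in a surfactant-containing non-phytotoxic solvent and applied to soil preemergence or to 1- to 4-leaf (2-18 cm) plants postemergence.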

[5] = tested on: johnsongrass (Sorghum halepense); experiment: Test B pre-/postemergence plant response; details: for pest or weed control at 31 g/ha / pest or weed control at 62 g/ha: Sorghum halepense, read-out: Plant response rating, Johnsongrass
Method in brief: as §2

[6] = tested on: pigweed (Amaranthus retroflexus); experiment: Test B pre-/postemergence plant response; details: for pest or weed control at 31 g/ha / pest or weed control at 62 g/ha: Amaranthus retroflexus, read-out: Plant response rating, Pigweed
Method in brief: as §2

[7] = tested on: canarygrass (Phalaris minor); experiment: Test B postemergence plant response; details: for Canarygrass plant response rating: 8 g ai/ha, postemergence, 0-100 scale; for Plant response rating, Canarygrass: Postemergence
Method in brief: (§3)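 Visual injury ratings on a 0–100 scale, where 100 means complete control, were made 13 to 15 days after postemergence treatment of greenhouse-grown plants at the 1- to 4-leaf stage.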

[8] = tested on: chickweed (Stellaria media); experiment: Test B postemergence plant response; details: for Chickweed plant response rating: 8 g ai/ha, postemergence, 0-100 scale; for Plant response rating, Chickweed: Postemergence
Method in brief: as §3

[9] = tested on: windgrass (Apera spica-venti); experiment: Test B postemergence plant response; details: for Windgrass plant response rating: postemergence, 0-100 scale; for Plant response rating, Windgrass: Postemergence
Method in brief: as §3

[10] = tested on: winter barley (Hordeum vulgare); experiment: Test B postemergence plant response; details: for Barley plant response rating: 8 g ai/ha, postemergence, 0-100 scale; for Plant response rating, Barley: Postemergence, scale 0 to 100, 0 no effect, 100 complete control
Method in brief: as §3

[11] = Postemergence, 31 g ai/ha, 0 to 100 scale, 0 no effect, 100 complete control
[12] = Postemergence, 125 g ai/ha, 0 to 100 scale, 0 no effect, 100 complete control
[13] = Preemergence, 31 g ai/ha, 0 to 100 scale, 0 is no effect, 100 is complete control
[14] = Preemergence, 125 g ai/ha, 0 to 100 scale (0 no effect, 100 complete control)
[15] = 8 g ai/ha, postemergence, 0-100 scale
[16] = 16 g ai/ha, postemergence, 0-100 scale
[17] = Postemergence, 31 g ai/ha, scale 0 to 100
[18] = Postemergence, 62 g ai/ha, scale 0 to 100, 0 no effect, 100 complete control
[19] = Preemergence, 31 g ai/ha, scale 0 to 100 (0 no effect, 100 complete control)
[20] = Preemergence, 62 g ai/ha, 0 to 100 scale, 0 no effect, 100 complete control
[21] = Preemergence, 8 g ai/ha, scale 0 to 100
[22] = Preemergence, 16 g ai/ha, scale 0 to 100
[23] = 62 g ai/ha, scale 0 to 100, 0 no effect, 100 complete control
[24] = post-emergence, Postemergence, 31 g ai/ha, 0 to 100 scale (0 no effect, 100 complete control)
[25] = post-emergence, Postemergence, 125 g ai/ha, 0 to 100 scale, 0 no effect, 100 complete control
[26] = pre-emergence, Preemergence, 31 g ai/ha, 0 to 100 scale, 0 is no effect, 100 is complete control
[27] = pre-emergence, Preemergence, 125 g ai/ha, 0 to 100 scale (0 no effect, 100 complete control)
[28] = Preemergence, 8 g ai/ha, scale 0 to 100 (0 no effect, 100 complete control)
[29] = post-emergence, Postemergence, 31 g ai/ha, scale 0 to 100
[30] = post-emergence, Postemergence, 62 g ai/ha, scale 0 to 100, 0 no effect, 100 complete control
[31] = pre-emergence, Preemergence, 31 g ai/ha, scale 0 to 100 (0 no effect, 100 complete control)
[32] = pre-emergence, Preemergence, 62 g ai/ha, 0 to 100 scale, 0 no effect, 100 complete control

CCCc1cc(-c2ccc(Cl)cc2)nn1-c1c(O)cnn(C)c1=O [Compound 76] was tested, and the “Plant response rating, Barnyardgrass” value [1, 11] was 90, the “Plant response rating, Barnyardgrass” value [1, 12] was 100 and the “Plant response rating, Barnyardgrass” value [1, 13] was 40. For the same compound, the “Plant response rating, Barnyardgrass” value [1, 14] was 100, the “Plant response rating, Corn” value (corn (Zea mays); [11]) was 20 and the “Plant response rating, Corn” value (corn (Zea mays); [12]) was 100. The “Plant response rating, Corn” value (corn (Zea mays); [13]) was 0, the “Plant response rating, Corn” value (corn (Zea mays); [14]) was 50 and the “Plant response rating, Pigweed” value [2, 11] was 0. The “Plant response rating, Pigweed” value [2, 12] was 0, the “Plant response rating, Pigweed” value [2, 13] was 0 and the “Plant response rating, Pigweed” value [2, 14] was 0. For the same compound, the “Plant response rating, Wheat” value [3, 11] was 20, the “Plant response rating, Wheat” value [3, 12] was 50 and the “Plant response rating, Wheat” value [3, 13] was 0. The “Plant response rating, Wheat” value [3, 14] was 0, the “Plant response rating, Galium” value ([4]; 31 g ai/ha, scale 0 to 100 (0 no effect, 100 complete control)) was 0 and the “Plant response rating, Galium” value ([4]; 62 g ai/ha, 0 to 100 scale, 0 no effect, 100 complete control) was 0. For the same compound, the “Galium plant response rating” value ([4]; 8 g ai/ha, scale 0 to 100) was 0, the “Galium plant response rating” value ([4]; 16 g ai/ha, scale 0 to 100) was 0 and the “Johnsongrass plant response rating” value [5, 15] was 65. The “Johnsongrass plant response rating” value [5, 16] was 75, the “Plant response rating, Johnsongrass” value [5, 17] was 95 and the “Plant response rating, Johnsongrass” value [5, 18] was 98. For the same compound, the “Plant response rating, Johnsongrass” value [5, 19] was 70, the “Plant response rating, Johnsongrass” value [5, 20] was 85 and the “Johnsongrass plant response rating” value [5, 21] was 0. For the same compound, the “Johnsongrass plant response rating” value [5, 22] was 0, the “Pigweed plant response rating” value [6, 15] was 0 and the “Pigweed plant response rating” value [6, 16] was 0. The “Plant response rating, Pigweed” value [6, 17] was 0, the “Plant response rating, Pigweed” value [6, 18] was 0 and the “Plant response rating, Pigweed” value [6, 19] was 0. For the same compound, the “Plant response rating, Pigweed” value [6, 20] was 0, the “Pigweed plant response rating” value [6, 21] was 0 and the “Pigweed plant response rating” value [6, 22] was 0. For the same compound, the “Canarygrass plant response rating” value [7] was 45, the “Plant response rating, Canarygrass” value ([7]; 16 g ai/ha, scale 0 to 100) was 60 and the “Plant response rating, Canarygrass” value ([7]; 31 g ai/ha, scale 0 to 100) was 90. The “Plant response rating, Canarygrass” value [7, 23] was 98, the “Chickweed plant response rating” value [8] was 0 and the “Plant response rating, Chickweed” value ([8]; 16 g ai/ha, scale 0 to 100) was 0. For the same compound, the “Plant response rating, Chickweed” value ([8]; 31 g ai/ha, scale 0 to 100) was 0, the “Plant response rating, Chickweed” value [8, 23] was 0 and the “Windgrass plant response rating” value ([9]; 8 g ai/ha) was 30. For the same compound, the “Windgrass plant response rating” value ([9]; 16 g ai/ha) was 80, the “Plant response rating, Windgrass” value ([9]; 31 g ai/ha, scale 0 to 100) was 80 and the “Plant response rating, Windgrass” value [9, 23] was 90. The “Barley plant response rating” value [10] was 0, the “Plant response rating, Barley” value ([10]; 16 g ai/ha) was 0 and the “Plant response rating, Barley” value ([10]; 31 g ai/ha) was 5. For the same compound, the “Plant response rating, Barley” value ([10]; 62 g ai/ha) was 25.
Work on Cc1nn(C)c(=O)c(-c2nc(-c3ccc(Cl)cc3)sc2C)c1O [Compound 79, 4-[2-(4-chlorophenyl)-5-methyl-4-thiazolyl]-5-hydroxy-2,6-dimethyl-3(2H)-pyridazinone] yielded a pest or weed control at 31 g/ha [1, 24] of 0%, a pest or weed control at 125 g/ha [1, 25] of 50% and a pest or weed control at 31 g/ha [1, 26] of 0%. The pest or weed control at 125 g/ha [1, 27] was 100%, the Corn plant response rating (crop injury, 0 = no effect, 100 = complete kill) at 31 g/ha (corn (Zea mays); [24]) was 0% and the Corn plant response rating (crop injury, 0 = no effect, 100 = complete kill) at 125 g/ha (corn (Zea mays); [25]) was 30%. It also gave a Corn plant response rating (crop injury, 0 = no effect, 100 = complete kill) at 31 g/ha (corn (Zea mays); [26]) of 0%, a Corn plant response rating (crop injury, 0 = no effect, 100 = complete kill) at 125 g/ha (corn (Zea mays); [27]) of 20% and a pest or weed control at 31 g/ha [2, 24] of 0%. The pest or weed control at 125 g/ha [2, 25] was 0%, the pest or weed control at 31 g/ha [2, 26] was 0% and the pest or weed control at 125 g/ha [2, 27] was 0%. For the same compound, the plant injury at 31 g/ha [3, 24] was 0%, the plant injury at 125 g/ha [3, 25] was 50% and the plant injury at 31 g/ha [3, 26] was 0%. The plant injury at 125 g/ha [3, 27] was 60%, the pest or weed control at 31 g/ha ([4]; Galium aparine, pre-emergence, 31 g ai/ha, scale 0 to 100 (0 no effect, 100 complete control), read-out: Plant response rating, Galium) was 0% and the pest or weed control at 62 g/ha ([4]; Galium aparine, pre-emergence, 62 g ai/ha, 0 to 100 scale, 0 no effect, 100 complete control, read-out: Plant response rating, Galium) was 0%. For the same compound, the “Galium plant response rating” value ([4]; 8 g ai/ha, scale 0 to 100 (0 no effect, 100 complete control)) was 0, the “Galium plant response rating” value ([4]; 16 g ai/ha, scale 0 to 100) was 0 and the “Johnsongrass plant response rating” value [5, 15] was 85. For the same compound, the “Johnsongrass plant response rating” value [5, 16] was 90, the “Johnsongrass plant response rating” value [5, 28] was 65 and the “Johnsongrass plant response rating” value [5, 22] was 85. For the same compound, the pest or weed control at 31 g/ha [5, 29] was 100%, the pest or weed control at 62 g/ha [5, 30] was 100% and the pest or weed control at 31 g/ha [5, 31] was 100%. The pest or weed control at 62 g/ha [5, 32] was 100%, the “Pigweed plant response rating” value [6, 15] was 0 and the “Pigweed plant response rating” value [6, 16] was 0. For the same compound, the pest or weed control at 31 g/ha [6, 29] was 0%, the pest or weed control at 62 g/ha [6, 30] was 0% and the pest or weed control at 31 g/ha [6, 31] was 0%. The pest or weed control at 62 g/ha [6, 32] was 0%, the “Pigweed plant response rating” value [6, 28] was 0 and the “Pigweed plant response rating” value [6, 22] was 0. The “Canarygrass plant response rating” value [7] was 10, the “Plant response rating, Canarygrass” value ([7]; 16 g ai/ha, scale 0 to 100) was 55 and the “Plant response rating, Canarygrass” value ([7]; 31 g ai/ha, scale 0 to 100) was 85. The “Plant response rating, Canarygrass” value [7, 23] was 95, the “Chickweed plant response rating” value [8] was 0 and the “Plant response rating, Chickweed” value ([8]; 16 g ai/ha, scale 0 to 100) was 0. For the same compound, the “Plant response rating, Chickweed” value ([8]; 31 g ai/ha, scale 0 to 100) was 0, the “Plant response rating, Chickweed” value [8, 23] was 0 and the “Windgrass plant response rating” value ([9]; 8 g ai/ha) was 0. For the same compound, the “Windgrass plant response rating” value ([9]; 16 g ai/ha) was 50, the “Plant response rating, Windgrass” value ([9]; 31 g ai/ha, scale 0 to 100) was 50 and the “Plant response rating, Windgrass” value [9, 23] was 70. For the same compound, the “Barley plant response rating” value [10] was 0, the “Plant response rating, Barley” value ([10]; 16 g ai/ha) was 10 and the “Plant response rating, Barley” value ([10]; 31 g ai/ha) was 30. For the same compound, the “Plant response rating, Barley” value ([10]; 62 g ai/ha) was 40.
